Tests used:
[1] = test system: proinflammatory (M1) and anti-inflammatory (M2) markers in macrophages; test: Ex vivo analysis of M1 and M2 markers in macrophages of EAE rats by realtime PCR; parameters: species or system rat; details: splenic macrophages day 13 post MBP-immunization and CNS infiltrating macrophages
Experimental: Ex vivo analysis of proinflammatory (M1) and anti-inflammatory (M2) markers in control and compound treated EAE rats. Splenic macrophages were harvested at day 13 post MBP-immunization and assayed for expression of a variety of markers by realtime PCR. CNS infiltrating cells were harvested and macrophages were analyzed for expression of M1 and M2 markers by realtime PCR.

EAE rats = test: Rat experimental autoimmune encephalomyelitis (EAE) model, preventive treatment; assay type: in vivo
Experimental: A further study was carried out to study the impact of Lp-PLA2 inhibitors on modulating M1/M2 imbalance. In this study, rats were induced to develop experimental autoimmune encephalomyelitis (EAE) by immunization with myelin basic protein (MBP) antigen and treated with a known Lp-PLA2 inhibitor: 5-((9-Methoxy-4-oxo-6,7-dihydro-4H-pyrimido[6,1-a]isoquinolin-2-yl)oxy)-2-(3-(trifluoromethyl)phenoxy)benzonitrile (See PCT application no. PCT/CN2011/001597). In this preventive treatment model, the compound was administered at day 0 (day of immunization) and continued to administer until day 22. The study lasted for 25 days. Rats were subsequently monitored for symptoms of EAE. Rats were immunized with MBP to develop EAE and symptoms were monitored daily. Plasma Lp-PLA2 activity, O×LDL, and LysoPC concentration were determined at different time points through the course of EAE.

COc1ccc2c(c1)CCn1c-2cc(Oc2ccc(Oc3cccc(C(F)(F)F)c3)c(C#N)c2)nc1=O [5-((9-Methoxy-4-oxo-6,7-dihydro-4H-pyrimido[6,1-a]isoquinolin-2-yl)oxy)-2-(3-(trifluoromethyl)phenoxy)benzonitrile] was tested, and the M1 markers expression [1] was “decrease in M1 markers”, the M2 markers expression [1] was “increase in M2 markers” and the “plasma Lp-PLA2 activity” value (EAE rats; rat EAE plasma) was “decreased Lp-PLA2 activity”. For the same compound, the “plasma LysoPC levels” value (EAE rats; rat EAE plasma) was “decreased” and the “clinical disease (EAE)” value (EAE rats; rat EAE, MBP immunization, administered day 0 until day 22) was “reduction in clinical disease”.
